Legend:
AMARE = experiment: greenhouse experiment, post-emergence treatment; format: in vivo, Amaranthus retroflexus; details: post-emergence method, scale from 0 to 100
Text: (§1) The culture containers used were plastic flowerpots containing loamy sand with approximately 3.0% of humus as the substrate. The seeds of the test plants were sown separately for each species.
(§2) For the post-emergence treatment, the test plants were first grown to a height of 3 to 15 cm, depending on the plant habit, and only then treated with the active ingredients which had been suspended or emulsified in water. For this purpose, the test plants were either sown directly and grown in the same containers, or they were first grown separately as seedlings and transplanted into the test containers a few days prior to treatment.
(§3) Depending on the species, the plants were kept at 10-25° C. or 20-35° C., respectively.
(§4) The test period extended over 2 to 4 weeks. During this time, the plants were tended, and their response to the individual treatments was evaluated.
(§5) Evaluation was carried out using a scale from 0 to 100. 100 means no emergence of the plants, or complete destruction of at least the aerial moieties, and 0 means no damage, or normal course of growth. A good herbicidal activity is given at values of at least 70 and a very good herbicidal activity is given at values of at least 85.
(§6) The plants used in the greenhouse experiments were of the following species: […]

ECHCG [1] = experiment: greenhouse experiment, post-emergence treatment; format: in vivo, Echinocloa crus-galli; details: post-emergence method, scale from 0 to 100
Method: The seeds of the test plants were sown separately for each species. […] For this purpose, the test plants were either sown directly and grown in the same containers, or they were first grown separately as seedlings and transplanted into the test containers a few days prior to treatment. Depending on the species, the plants were kept at 10-25° C. or 20-35° C., respectively. The test period extended over 2 to 4 weeks. During this time, the plants were tended, and their response to the individual treatments was evaluated. Evaluation was carried out using a scale from 0 to 100. 100 means no emergence of the plants, or complete destruction of at least the aerial moieties, and 0 means no damage, or normal course of growth. A good herbicidal activity is given at values of at least 70 and a very good herbicidal activity is given at values of at least 85. The plants used in the greenhouse experiments were of the following species: [table]

APESV = experiment: greenhouse experiment, pre-emergence treatment; format: in vivo, Apera spica-venti; details: pre-emergence method, application rate 2000 g/ha, scale from 0 to 100
Text: (§7) The seeds of the test plants were sown separately for each species. For the pre-emergence treatment, the active ingredients, which had been suspended or emulsified in water, were applied directly after sowing by means of finely distributing nozzles. The containers were irrigated gently to promote germination and growth and subsequently covered with transparent plastic hoods until the plants had rooted. This cover caused uniform germination of the test plants, unless this had been impaired by the active ingredients. Depending on the species, the plants were kept at 10-25° C. or 20-35° C., respectively. The test period extended over 2 to 4 weeks. During this time, the plants were tended, and their response to the individual treatments was evaluated. Evaluation was carried out using a scale from 0 to 100. 100 means no emergence of the plants, or complete destruction of at least the aerial moieties, and 0 means no damage, or normal course of growth. A good herbicidal activity is given at values of at least 70 and a very good herbicidal activity is given at values of at least 85. The plants used in the greenhouse experiments were of the following species: [table]

ECHCG [2] = experiment: greenhouse experiment, pre-emergence treatment; format: in vivo, Echinocloa crus-galli; details: pre-emergence method, application rate 2000 g/ha, scale from 0 to 100
Text: as §7

AVEFA = experiment: greenhouse experiment, post-emergence treatment; format: in vivo, Avena fatua; details: post-emergence method, application rate 2000 g/ha, scale from 0 to 100
Text: as §1, §2, §3, §4, §5, §6

ALOMY = experiment: greenhouse experiment, post-emergence treatment; format: in vivo, Alopecurus myosuroides; details: post-emergence method, application rate 2000 g/ha, scale from 0 to 100
Text: as §1, §2, §3, §4, §5, §6

SETVI = experiment: greenhouse experiment, post-emergence treatment; format: in vivo, Setaria viridis; details: post-emergence method, application rate 2000 g/ha, scale from 0 to 100
Text: as §1, §2, §3, §4, §5, §6

SMILES	herbicidal activity against AMARE (AMARE; application rate 2000 g/ha)	herbicidal activity against ECHCG (ECHCG [1]; application rate 2000 g/ha)	herbicidal activity against APESV (APESV)	herbicidal activity against ECHCG (ECHCG [2])	herbicidal activity against AVEFA (AVEFA)	herbicidal activity against ALOMY (ALOMY)	herbicidal activity against SETVI (SETVI)	herbicidal activity against AMARE (AMARE; application rate 1000 g/ha)	herbicidal activity against ECHCG (ECHCG [1]; application rate 1000 g/ha)
Cc1ccsc1-c1cnc(C2CC2)nc1C(=O)O [Example 3]	very good (a very good herbicidal activity is given at values of at least 85)	very good (a very good herbicidal activity is given at values of at least 85)	very good (a very good herbicidal activity is given at values of at least 85)	very good (a very good herbicidal activity is given at values of at least 85)	–	–	–	–	–
COC(=O)c1nc(C2CC2)ncc1-c1occc1C(F)F [Example 17]	very good (a very good herbicidal activity is given at values of at least 85)	–	–	–	–	–	–	–	–
COC(=O)c1nc(C2CC2)ncc1-c1cccnc1Br [Example 18]	very good (a very good herbicidal activity is given at values of at least 85)	very good (a very good herbicidal activity is given at values of at least 85)	very good (a very good herbicidal activity is given at values of at least 85)	very good (a very good herbicidal activity is given at values of at least 85)	very good (a very good herbicidal activity is given at values of at least 85)	–	–	–	–
O=C(O)c1nc(C2CC2)ncc1-c1ncc(F)cc1Br [Example 24]	very good (a very good herbicidal activity is given at values of at least 85)	very good (a very good herbicidal activity is given at values of at least 85)	very good (a very good herbicidal activity is given at values of at least 85)	very good (a very good herbicidal activity is given at values of at least 85)	very good (a very good herbicidal activity is given at values of at least 85)	–	–	–	–
COC(=O)c1nc(C2CC2)ncc1-c1ncccc1Br [Example 28]	–	–	very good (a very good herbicidal activity is given at values of at least 85)	very good (a very good herbicidal activity is given at values of at least 85)	–	very good (a very good herbicidal activity is given at values of at least 85)	good (A good herbicidal activity is given at values of at least 70)	–	–
COC(=O)c1nc(C2CC2)ncc1-c1cnccc1Br [Example 32]	very good (a very good herbicidal activity is given at values of at least 85)	–	very good (a very good herbicidal activity is given at values of at least 85)	very good (a very good herbicidal activity is given at values of at least 85)	–	–	–	–	–
COC(=O)c1nc(C2CC2)ncc1-c1cnccc1Br [Example 34]	–	very good (a very good herbicidal activity is given at values of at least 85)	–	–	–	very good (a very good herbicidal activity is given at values of at least 85)	very good (a very good herbicidal activity is given at values of at least 85)	–	–
O=C(O)c1nc(C2CC2)ncc1-c1ccncc1Br [Example 38]	very good (a very good herbicidal activity is given at values of at least 85)	–	very good (a very good herbicidal activity is given at values of at least 85)	very good (a very good herbicidal activity is given at values of at least 85)	very good (a very good herbicidal activity is given at values of at least 85)	very good (a very good herbicidal activity is given at values of at least 85)	–	–	–
O=C(O)c1nc(C2CC2)ncc1-c1ncccc1I [Example 39]	–	good (A good herbicidal activity is given at values of at least 70)	very good (a very good herbicidal activity is given at values of at least 85)	very good (a very good herbicidal activity is given at values of at least 85)	very good (a very good herbicidal activity is given at values of at least 85)	good (A good herbicidal activity is given at values of at least 70)	–	–	–
O=Cc1ccoc1-c1cnc(C2CC2)nc1C(=O)O [Example 40]	very good (a very good herbicidal activity is given at values of at least 85)	–	–	–	–	–	–	–	–
COC(=O)c1nc(C2CC2)ncc1-c1ncc(F)cc1Cl [Example 41]	–	–	very good (a very good herbicidal activity is given at values of at least 85)	very good (a very good herbicidal activity is given at values of at least 85)	very good (a very good herbicidal activity is given at values of at least 85)	very good (a very good herbicidal activity is given at values of at least 85)	very good (a very good herbicidal activity is given at values of at least 85)	–	–
O=C(O)c1nc(C2CC2)ncc1-c1ncc(F)cc1Cl [Example 42]	–	very good (a very good herbicidal activity is given at values of at least 85)	very good (a very good herbicidal activity is given at values of at least 85)	very good (a very good herbicidal activity is given at values of at least 85)	very good (a very good herbicidal activity is given at values of at least 85)	very good (a very good herbicidal activity is given at values of at least 85)	–	–	–
COC(=O)c1nc(OC)ncc1-c1ncccc1F [Example 46]	good (A good herbicidal activity is given at values of at least 70)	–	–	–	–	–	–	–	–
CCc1ncc(-c2cccnc2Br)c(C(=O)O)n1 [Example 48]	–	–	–	–	–	–	very good (a very good herbicidal activity is given at values of at least 85)	–	–
CCc1ncc(-c2ncccc2Br)c(C(=O)O)n1 [Example 49]	–	–	–	very good (a very good herbicidal activity is given at values of at least 85)	–	–	very good (a very good herbicidal activity is given at values of at least 85)	–	–
COC(=O)c1nc(OC)ncc1-c1ncc(F)cc1F [Example 53]	–	–	–	–	–	–	good (A good herbicidal activity is given at values of at least 70)	–	–
CCc1ncc(-c2ncc(F)cc2Br)c(C(=O)O)n1 [Example 54]	–	–	–	–	–	–	–	very good (a very good herbicidal activity is given at values of at least 85)	very good (a very good herbicidal activity is given at values of at least 85)
O=C(O)c1nc(C2CC2)ncc1-c1nc(C(F)(F)F)ccc1F [Example 62]	–	very good (a very good herbicidal activity is given at values of at least 85)	very good (a very good herbicidal activity is given at values of at least 85)	very good (a very good herbicidal activity is given at values of at least 85)	very good (a very good herbicidal activity is given at values of at least 85)	very good (a very good herbicidal activity is given at values of at least 85)	–	–	–
O=C(O)c1nc(C2CC2)ncc1-c1cc(C(F)(F)F)ncc1Cl [Example 64]	–	good (A good herbicidal activity is given at values of at least 70)	very good (a very good herbicidal activity is given at values of at least 85)	very good (a very good herbicidal activity is given at values of at least 85)	very good (a very good herbicidal activity is given at values of at least 85)	very good (a very good herbicidal activity is given at values of at least 85)	–	–	–

Reference: US11180470B2, “Herbicidal pyrimidine compounds” (BASF SE, priority 2016, dated 2021)
